The values below come from US20030139362A1, “Methods of treating cognitive decline disease conditions with androgens” (priority 2000, published 2003).

Series [1] concerns female apoE4 mice. The settings on record: for probe trial (platform removed): time searching in the target quadrant: female apoE4 mice, P<0.05, Tukey-Kramer test, placebo-treated mice did not.
Excerpt: We tested whether administration of androgens might be successful for improving cognition in apoE4 female mice.
A short description of series [2]: plasma hormone levels by radioimmunoassay (RIA). The series is classed as in vivo. The following applies: testosterone-treated female mice, subcutaneous Silastic capsule, after the behavioral testing.
In series [3] the test system is women. The settings on record: literature: Sherwin 1988 (surgically menopausal women); Yaffe 2000 (women with apoE4); cited from earlier work.
Setting [4] is: six-month-old female apoE4 mice, subcutaneous Silastic capsule, tested eight days after implantation.

On to `C[C@]12CCC(=O)C[C@@H]1CC[C@@H]1[C@@H]2CC[C@]2(C)[C@@H](O)CC[C@@H]12` [dihydrotestosterone], for which, in series [1], the “probe trial (platform removed): time searching in the target quadrant” value is “spent significantly more time searching in the target quadrant than in any of the other quadrants”. For the same molecule, in series [1] (setting [4]), the “memory retention in the water maze” value is listed as “improved memory retention”.
Turning to `C[C@]12CC[C@H]3[C@@H](CCC4=CC(=O)CC[C@@]43C)[C@@H]1CC[C@@H]2O` [testosterone], the “probe trial (platform removed): time searching in the target quadrant” value in series [1] was “spent significantly more time searching in the target quadrant than in any of the other quadrants”. Further, the “memory retention in the water maze” value in series [1] (setting [4]) is “improved memory retention”. Also, the “learning in the water maze (hidden platform sessions)” value in series [1] (six-month-old female apoE4 mice, subcutaneous Silastic capsule, tested eight days after implantation, P<0.05 vs placebo) is on record as “improved learning”. The plasma testosterone levels in series [2] is 5.61 ± 0.74 ng/mL. Moreover, the “cognition / cognitive function in women” value in series [3] is “improved cognition in surgically menopausal women”.
As to Estrogen, the “cognition / cognitive function in women” value in series [3] is given as “failed to preserve cognitive function in women with apoE4”.
